Assay results as given in the supplement of paper PMC10307832.

Key:
Test in all cases: relative viability (nuclei count vs DMSO), 5 days (fraction); higher = more cells survive
[1] = compound: CC[C@H](Nc1ncnc2[nH]cnc12)c1nc2cccc(F)c2c(=O)n1-c1ccccc1 [Idelalisib] + Cc1cc(Nc2cc(N3CCN(C)CC3)nc(Sc3ccc(NC(=O)C4CC4)cc3)n2)n[nH]1 [Tozasertib] (partner 0.1 µM)
Procedure, shortened: (§1)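 Lung cancer cell lines were pin-tool dosed in 1536-well plates on the day after seeding, with either a lone drug or a fixed anchor-drug dose plus five library-drug doses (not always all listed) in √10 steps. Nuclei were counted on 4× images after 5 days. Relative viability is the ratio of treated-well to vehicle-well nuclei counts, with each value a median of duplicate plates.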

[2] = compound: Nc1nc2[nH]cc(CCc3ccc(C(=O)N[C@@H](CCC(=O)O)C(=O)O)cc3)c2c(=O)[nH]1 [Pemetrexed] + COc1cc2c(Oc3ccc(NC(=O)C4(C(=O)Nc5ccc(F)cc5)CC4)cc3F)ccnc2cc1OCCCN1CCOCC1 [Foretinib] (partner 0.25 µM)
Procedure, shortened: as §1

[3] = compound: CC[C@H](Nc1ncnc2[nH]cnc12)c1nc2cccc(F)c2c(=O)n1-c1ccccc1 [Idelalisib] + Cc1nc(Nc2ncc(C(=O)Nc3c(C)cccc3Cl)s2)cc(N2CCN(CCO)CC2)n1 [Dasatinib] (partner 0.075 µM)
Procedure, shortened: as §1

[4] = compound: Nc1nc2[nH]cc(CCc3ccc(C(=O)N[C@@H](CCC(=O)O)C(=O)O)cc3)c2c(=O)[nH]1 [Pemetrexed] + CS(=O)(=O)CCNCc1ccc(-c2ccc3ncnc(Nc4ccc(OCc5cccc(F)c5)c(Cl)c4)c3c2)o1 [Lapatinib] (partner 2 µM)
Procedure, shortened: as §1

Row | Cell Line | relative viability ([1]; first compound 0.04 µM) | relative viability ([1]; first compound 0.1265 µM) | relative viability ([1]; first compound 0.4 µM) | relative viability ([1]; first compound 1.265 µM) | relative viability ([1]; first compound 4 µM) | relative viability ([2]; first compound 0.002 µM) | relative viability ([2]; first compound 0.006325 µM) | relative viability ([2]; first compound 0.02 µM) | relative viability ([2]; first compound 0.06325 µM) | relative viability ([2]; first compound 0.2 µM) | relative viability ([3]; first compound 0.04 µM) | relative viability ([3]; first compound 0.1265 µM) | relative viability ([3]; first compound 0.4 µM) | relative viability ([3]; first compound 1.265 µM) | relative viability ([3]; first compound 4 µM) | relative viability ([4]; first compound 0.002 µM) | relative viability ([4]; first compound 0.006325 µM) | relative viability ([4]; first compound 0.02 µM) | relative viability ([4]; first compound 0.06325 µM) | relative viability ([4]; first compound 0.2 µM)
1 | EMC-BAC-2 | 0.313 | 0.277 | 0.296 | 0.276 | 0.281 | 1.02 | 0.923 | 1.01 | 1 | 0.902 | 0.319 | 0.337 | 0.283 | 0.321 | 0.346 | 0.792 | 0.777 | 0.961 | 0.903 | 0.888
2 | HOP-62 | 0.415 | 0.408 | 0.392 | 0.436 | 0.326 | 0.892 | 1.02 | 1.2 | 1.09 | 1.07 | 0.636 | 0.714 | 0.547 | 0.581 | 0.526 | 0.885 | 1.07 | 0.898 | 1.14 | 0.982
3 | NCI-H1793 | 0.344 | 0.311 | 0.222 | 0.229 | 0.225 | 0.844 | 0.575 | 0.733 | 0.465 | 0.749 | 0.379 | 0.372 | 0.294 | 0.374 | 0.323 | 0.543 | 0.769 | 0.619 | 0.704 | 0.619
4 | NCI-H1355 | 0.534 | 0.611 | 0.442 | 0.488 | 0.386 | 0.864 | 0.956 | 1.05 | 1.01 | 0.948 | 0.631 | 0.791 | 0.504 | 0.561 | 0.518 | 0.783 | 1.05 | 0.991 | 1.04 | 0.975
5 | COR-L23 | 0.196 | 0.195 | 0.207 | 0.225 | 0.162 | 1.01 | 1.07 | 0.946 | 0.497 | 0.239 | 0.442 | 0.42 | 0.388 | 0.455 | 0.417 | 0.853 | 0.815 | 1.05 | 0.365 | 0.192
6 | A-427 | 0.222 | 0.222 | 0.219 | 0.196 | 0.181 | 0.994 | 1.02 | 1.08 | 0.961 | 0.929 | 0.783 | 0.685 | 0.568 | 0.704 | 0.671 | 0.974 | 1.06 | 1.09 | 1.14 | 0.819
7 | NCI-H520 | 0.468 | 0.4 | 0.406 | 0.405 | 0.405 | 0.787 | 0.749 | 0.848 | 0.693 | 0.738 | 0.201 | 0.158 | 0.126 | 0.209 | 0.147 | 0.803 | 0.886 | 0.833 | 0.829 | 0.838
8 | LXF-289 | 0.259 | 0.189 | 0.195 | 0.14 | 0.235 | 0.925 | 0.994 | 1.03 | 0.991 | 0.959 | 0.19 | 0.218 | 0.135 | 0.202 | 0.195 | 0.822 | 0.862 | 0.949 | 0.899 | 0.874
